Source: patent US20200316062A1, “COMBINATIONS COMPRISING HISTONE DEACETYLASE INHIBITORS” (Karus Therapeutics Limited, priority 2016, published 2020)

What was measured:
Human HDAC1 = molecular target: T1, Human HDAC1 (Homo sapiens, UniProt Q13547); assay: HDAC biochemical assay, acetylated AMC-labeled peptide substrate; conditions: read-out: IC50 (nM) HDAC 1
T1 construct: full length with C-terminal His-tag and C-terminal FLAG-tag; His-tag (C); FLAG-tag (C); made in house
Protocol: Activity against all zinc-dependent HDACs 1 to 11 was assessed by using an acetylated AMC-labeled peptide substrate. […] All assays were based on the AMC-labeled substrate and developer combination.
(§1) The protocol involved a two-step reaction: first, the substrate with the acetylated lysine side chain is incubated with a sample containing HDAC activity, to produce the deacetylated products, which are then digested in the second step by the addition of developer to produce the fluorescent signal proportional to the amount of deacetylated substrates.
Human HDAC1 (GenBank Accession No. NM_004964), full length with C-terminal His-tag and C-terminal FLAG-tag, MW=56 kDa, expressed in baculovirus expression system.
(§2) Before use, 1 mg/mL BSA and DMSO are added.
Incubate for 2 hours at 30° C.
HDAC1: 0.3 ng/ul HDAC1 and 50 μM HDAC substrate are in the reaction buffer with 1% DMSO final. Incubate for 1 hour at 30° C.
(§3) Stage 1: Deacetylation of substrate by incubation of HDAC enzymes with compounds
(§4) Stage 2: Development by addition of Developer to digest the deacetylated substrate, and generate the fluorescent color; Detection: 360/460 Ex/Em

Recombinant human HDAC6 = molecular target: T2, Recombinant human HDAC6 (Homo sapiens, UniProt Q9UBN7); assay: as above; conditions: read-out: IC50 (nM) HDAC 6
T2 construct: full length, MW=159 kDa; GST (N); made in house; host or cells: Sf9 insect cells (baculovirus)
T2 sequence (Q9UBN7 1-1215): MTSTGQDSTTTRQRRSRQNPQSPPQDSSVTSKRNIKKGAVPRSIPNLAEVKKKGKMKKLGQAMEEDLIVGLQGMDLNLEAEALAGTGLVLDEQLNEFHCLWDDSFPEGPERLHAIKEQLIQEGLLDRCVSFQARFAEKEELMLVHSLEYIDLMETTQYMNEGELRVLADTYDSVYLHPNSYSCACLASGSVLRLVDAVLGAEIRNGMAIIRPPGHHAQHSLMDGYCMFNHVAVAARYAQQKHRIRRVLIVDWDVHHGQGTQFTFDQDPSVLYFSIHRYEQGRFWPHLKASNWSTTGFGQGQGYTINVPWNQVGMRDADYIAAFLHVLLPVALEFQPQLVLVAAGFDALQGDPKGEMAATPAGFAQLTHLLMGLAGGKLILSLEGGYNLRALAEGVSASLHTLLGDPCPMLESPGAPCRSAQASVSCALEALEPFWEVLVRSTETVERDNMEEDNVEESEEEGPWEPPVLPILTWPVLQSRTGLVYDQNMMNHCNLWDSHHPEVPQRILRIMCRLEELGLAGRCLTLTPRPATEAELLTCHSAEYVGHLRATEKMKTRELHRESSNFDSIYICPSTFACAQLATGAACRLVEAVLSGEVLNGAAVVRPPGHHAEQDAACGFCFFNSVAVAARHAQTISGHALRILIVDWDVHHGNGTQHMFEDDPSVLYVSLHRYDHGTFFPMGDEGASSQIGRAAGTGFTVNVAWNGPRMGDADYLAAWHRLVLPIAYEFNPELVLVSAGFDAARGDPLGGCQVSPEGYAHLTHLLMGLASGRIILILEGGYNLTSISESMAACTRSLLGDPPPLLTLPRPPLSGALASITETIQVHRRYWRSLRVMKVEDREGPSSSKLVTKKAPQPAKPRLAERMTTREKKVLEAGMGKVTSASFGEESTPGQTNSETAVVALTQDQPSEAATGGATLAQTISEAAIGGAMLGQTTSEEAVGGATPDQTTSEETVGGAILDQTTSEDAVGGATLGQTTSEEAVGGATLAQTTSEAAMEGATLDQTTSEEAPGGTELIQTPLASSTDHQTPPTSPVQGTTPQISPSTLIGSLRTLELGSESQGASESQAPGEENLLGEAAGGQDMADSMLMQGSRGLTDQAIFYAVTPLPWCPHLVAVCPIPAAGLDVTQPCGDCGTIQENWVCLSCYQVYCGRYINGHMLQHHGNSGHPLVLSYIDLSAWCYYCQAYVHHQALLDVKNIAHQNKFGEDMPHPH
Protocol: Activity against all zinc-dependent HDACs 1 to 11 was assessed by using an acetylated AMC-labeled peptide substrate. The substrate RHKK(Ac)AMC was used for HDAC1, 2, 3, 6, 10 and 11; for HDAC8, the substrate used was RHKAcKAc. […] All assays were based on the AMC-labeled substrate and developer combination.
as §1
Recombinant human HDAC6 (GenBank Accession No. BC069243), full length, MW=159 kDa, was expressed by baculovirus in Sf9 insect cells using an N-terminal GST tag.
as §2
Incubate for 2 hours at 30° C.
HDAC6: 0.3 ng/ul HDAC6 and 50 μM HDAC substrate are in the reaction buffer with 1% DMSO final. Incubate for 1 hours at 30° C.
as §3, §4

RPMI8226 tumours = assay: Tumour growth delay study in male SCID mice bearing RPMI8226 tumours; format: in vivo
From the text: (§5) Male SCID mice were subcutaneously implanted with RPM18226 multiple myeloma cells. Once tumours were established (volume of ˜130 mm) treatment was commenced.
(§6) Animals were housed in IVC cages (5 per cage) with individual mice identified by tail mark. All animals were allowed free access to a standard certified commercial diet and sanitised water during the study.
(§7) RPMI cells (1×10^7 in matrigel) were implanted subcutaneously into the rear dorsum of male SCID mice using a 25-gauge needle. When tumours were 100-150 mm^3 animals were randomly assigned to treatment groups.

acetylated tubulin = assay: Western blot analysis of tumour tissue; format: in vivo, male SCID mice; conditions: tumour tissue removed from treated animals
[1] = Clinical signs and weight in the tumour growth delay study
From the text: as §5, §6, §7

[2] = system: PD-L1-expressing HT29 colorectal adenocarcinoma cells, primary stromal fibroblasts and PBMCs; assay: Tumour microenvironment (TME) model system, study KRS018-01-b (DiscoverX); format: cell-based; conditions: 2.5 to 10 μM; SAg stimulation 48 h; dose-dependent
Protocol: Test compounds dissolved in DMSO were profiled in a commercially-available tumour microenvironment (TME) model system consisting of PD-L1-expressing HT29 colorectal adenocarcinoma cells, primary stromal fibroblasts and PBMCs in which immune cel responses are suppressed by the presence of the cancer cells. Co-cultured cells were exposed to 2.5, 5, 10, 20 μM of test compound or DMSO as a control and stimulated with SAg for 48 h. The activity profile in the co-culture system was determined using ELISA endpoint assays to detect modulation of protein markers relevant to immune tolerance, inflammation, angiogenesis and matrix remodelling, and sulforhodamine B (SRB) and alamar blue assays to measure the viability of adherent colorectal adenocarcinoma cells and fibroblasts, and PBMCs, respectively.

[3] = Group 2: Bortezomib 0.5 mg/kg i.v. twice weekly

T1 sequence (Q13547 whole entry): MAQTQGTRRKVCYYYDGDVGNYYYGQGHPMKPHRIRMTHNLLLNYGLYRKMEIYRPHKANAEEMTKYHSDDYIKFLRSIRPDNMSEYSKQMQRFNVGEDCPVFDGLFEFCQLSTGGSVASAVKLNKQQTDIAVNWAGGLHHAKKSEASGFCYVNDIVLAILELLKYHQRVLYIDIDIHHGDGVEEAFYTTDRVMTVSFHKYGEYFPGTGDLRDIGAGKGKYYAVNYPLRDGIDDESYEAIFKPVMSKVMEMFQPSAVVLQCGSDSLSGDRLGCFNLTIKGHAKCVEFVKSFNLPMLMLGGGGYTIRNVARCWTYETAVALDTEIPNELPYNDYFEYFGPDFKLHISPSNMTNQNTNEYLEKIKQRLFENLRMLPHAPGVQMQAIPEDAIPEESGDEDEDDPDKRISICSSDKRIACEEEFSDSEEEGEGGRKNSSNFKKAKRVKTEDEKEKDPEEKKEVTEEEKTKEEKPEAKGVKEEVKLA

Structure (SMILES): CNc1cc(-c2ccnc(N(Cc3ccc(C(=O)NO)cc3)c3cnccn3)c2)ccn1 [Example TT, N-hydroxy-4-({[2′-(methylamino)-[4,4′-bipyridine]-2-yl](pyrazin-2-yl)amino}methyl)benzamide]
- IC50 (Human HDAC1): 1000 to 10000 nM
- IC50 (Recombinant human HDAC6): ≤ 500 nM

Structure (SMILES): O=C(NO)c1ccc(CN(c2cnccn2)c2cnccn2)cc1 [Example GG, 4-{[Bis(pyrazin-2-yl)amino]methyl}-N-hydroxybenzamide]
- control of tumour (RPMI8226 tumours; Group 4 and 5 (with bortezomib), after 8 days of treatment): significant control of tumour
- expression of acetylated tubulin in tumour tissue (acetylated tubulin): increased expression
- weight change during the study ([1]; bortezomib combinations): no significant weight change
- levels of secreted granzyme-B, IFNγ, IL-10, IL-17A, IL-2, IL-6 and TNFα [2]: increased

Structure (SMILES): O=C(NO)c1ccc(CN(c2cnccn2)c2cc(-c3ccncc3)ccn2)cc1 [Example UU, 4-[({[4,4′-bipyridine]-2-yl}(pyrazin-2-yl)amino)methyl]-N-hydroxybenzamide]
- IC50 (Human HDAC1): 1000 to 10000 nM
- IC50 (Recombinant human HDAC6): ≤ 500 nM

Structure (SMILES): CC(C)C[C@H](NC(=O)[C@H](Cc1ccccc1)NC(=O)c1cnccn1)B(O)O [Bortezomib]
- % T/C value versus vehicle (RPMI8226 tumours; [3]): 67.8%
- Mean tumour volume, Group mean at day 19 (RPMI8226 tumours; [3]): 984 mm³
- Group mean at day 26 (weight, clinical signs) [1, 3]: 98.5
